Measured values from US20250367134A1, “PERIPHERALIZATION OF CENTRALLY-ACTING CANNABINOID-1 RECEPTOR ANTAGONISTS BY NANOPARTICLES FOR THE TREATMENT METABOLIC RELATED CONDITIONS” (Yissum Research Development Company of the Hebrew …, priority 2022, published 2025).
Counter-ions that a name gives are not always drawn.

What was measured:
[1] = 10 mg/kg; cited from earlier work
[2] = Biodistribution of rimonabant in HFD-fed obese mice after chronic 28-day treatment; assay type: in vivo; details: 18 hr following the last injection, 1 mg/kg ip, 28 days
Procedure: The NPs were suspended in 1×PBS (15-450 μg/mL), and the free drug was dissolved in 4% DMSO, 1% Tween 80, and saline (0.1-3.0 mg/mL). The mice were euthanized 1-, 4-, and 24-h post-injection. […] The mice were euthanized 18 h following the last injection. Blood was collected, and mice were perfused with 1×PBS (via the left ventricle until the effluent from the right atrium was clear of blood), and the brain, lungs, liver, kidneys, fat, and spleen were harvested.
Tissues and serum samples were processed as follows: Total proteins were precipitated with ice-cold acetone/Tris buffer (50 mM, pH 8.0). Then, the samples were homogenized in ice-cold methanol/Tris buffer (50 mM, pH 8.0, 1:1) containing AM251 10 μg/mL as an internal standard. […] Rimonabant levels in the samples were determined by liquid chromatography/tandem mass spectrometry (LC-MS/MS).
The analyses were conducted on a TSQ Quantum Access Max triple quadrupole mass spectrometer (Thermo Scientific, San Jose, CA, USA) coupled with an UHPLC system, which included a Dionex Pump and an Accela Autosampler (Thermo Scientific, San Jose, CA, USA). […] Rimonabant was detected in a positive ion mode using electron spray ionization (ESI) and the multiple reaction monitoring (MRM) mode of acquisition. […]

[3] = Chronic treatment of diet-induced obesity (DIO) mice: body weight, body composition, food intake, urine; assay type: in vivo; details: 1 mg/kg/d ip, 28 days
Excerpt: The experimental protocol used was approved by the Institutional Animal Care and Use Committee of the Hebrew University, which is an AAALAC International accredited institute. To generate diet-induced obesity (DIO; body weight>42 g), six-week-old male C57B1/6JHsd mice (Envigo, Israel) were fed either a high-fat diet (HFD; 60% of calories from fat, 20% from protein, and 20% from carbohydrates; Research Diet, D12492), or a standard diet (STD; 14% fat, 24% protein, 62% carbohydrates; NIH-31 rodent diet) for 16 weeks. […] Body-weight and food intake were measured daily. Total body fat and lean masses were determined by EchoMRI100H™ (Echo Medical Systems LLC, Houston, TX, USA). At 24 h, urine was collected one week before euthanasia using mouse metabolic cages (CCS2000 Chiller System, Hatteras Instruments, NC, USA). Mice were euthanized by cervical dislocation under anesthesia, and the kidneys, brain, liver, fat pads, spleen, lungs, and heart were removed and weighed, and samples were either snap-frozen or fixed in buffered 4% formalin. Trunk blood was collected to determine the biochemical parameters.

[4] = Glucose tolerance (ipGTT) and insulin sensitivity tests (ipIST) in DIO mice; assay type: in vivo; details: 1 mg/kg/d ip, 28 days
Procedure: Mice that underwent overnight fasting were injected with glucose (1.5 g/kg, ip), followed by a tail blood collection at 0, 15, 30, 45, 60, 90, and 120 minutes. The blood glucose levels were determined using a glucometer. The following day, the mice underwent fasting for 6 h before receiving insulin (0.75 U/kg, ip; Eli Lilly); their blood glucose levels were determined at the same intervals as above. The homeostasis model assessment insulin resistance (HOMA-IR) was calculated as ([μU/mL] X fasting plasma glucose [mmol/L]/22.5). The insulin sensitivity index (ISI) was calculated as 1/(glucose×insulin)×1000, with glucose expressed as mg/dL and insulin as mU/L.

[5] = 3 and 10 mg/kg; cited from earlier work
[6] = tested on: serum protein; details: cited from earlier work
[7] = tested on: genes associated with fatty-acid β-oxidation (Cpta1, Acadm, Echs1, Hadh, and Acaa2); experiment: CB1R antagonism in primary hepatocytes under lipotoxic conditions, qPCR; assay type: cell-based, mouse; details: 1 μM, 24 h, 0.5 mM O:P 2:1
Procedure: Total RNA of mouse livers or primary hepatocytes was extracted using TRIzol (Invitrogen), followed by DNase I treatment (Invitrogen), and then reverse-transcribed using an Iscript cDNA kit (Bio-Rad). Real-time PCR was conducted using iTaq Universal SYBR Green Supermix (Bio-Rad) and the CFX connect ST system (Bio-Rad). The following Mus musculus genes were detected: Cpta1, Acadm, Echs1, Hadh, and Acaa2; all genes were normalized to β-actin.
Primary mouse hepatocytes were isolated by liberase perfusion as previously described. Briefly, the liver of anesthetized mice was first perfused with calcium-free Hanks balanced salt solution supplemented with HEPES and EDTA (HBSS, Biological Industries, Beit HaEmek, Cat #02-018-1A HEPES Cat #03-025-1B), followed by perfused liberase digestion (25 μg/mL liberase in HBSS; Biological Industries, Beit HaEmek, Cat #02-015-1A with 25 mM HEPES). After digestion, the hepatocytes were released by dissociation from the lobes (centrifuged at 50×g for 2 min at 4° C.). The pellet from the first centrifugation of hepatocytes was loaded on a 90% Percoll gradient (Sigma-Aldrich; Cat #GE17-0891-01) and centrifuged at 200×g for 10 min at 4° C. […]

[8] = Multi-parameter metabolic assessment (indirect calorimetry) in DIO mice; assay type: in vivo; details: 1 mg/kg/d ip, 28 days
Procedure: The metabolic and activity profiles of the mice were assessed using the Promethion High-Definition Behavioral Phenotyping System (Sable Instruments, Inc., Las Vegas, NV, USA). Data acquisition and instrument control were performed using MetaScreen software version 2.2.18.0, and the obtained raw data were processed using ExpeData version 1.8.4, using an analysis script detailing all aspects of the data transformation. Mice with free access to food and water were subjected to a standard 12 h light/12 h dark cycle, which consisted of a 16 h acclimation period, followed by 24 h of sampling. Respiratory gases were measured by using the GA-3 gas analyzer (Sable Systems, Inc., Las Vegas, NV, USA), using a pull-mode, negative-pressure system. Airflow was measured and controlled by FR-8 (Sable Systems, Inc., Las Vegas, NV, USA), with a set flow rate of 2000 mL/min. Water vapor was continuously measured and its dilution effect on O2 and CO2 was mathematically compensated. The effective mass (eff.Mass) was calculated by ANCOVA analysis. The respiratory quotient (RQ) was calculated as the ratio between CO2 produced to O2 consumed, and the total energy expenditure (TEE) was calculated as VO2×(3.815+1.232×RQ), normalized to the effective body mass, and expressed as kcal/h/kg^eff.Mass. Fat oxidation (FO) was calculated as FO=1.69×VO2−1.69×VCO2 and expressed as g/d/kgeff.Mass. Ambulatory activity and position were monitored simultaneously with the collection of the calorimetry data using XYZ beam arrays with a beam spacing of 0.25 cm.

[9] = Blood and liver biochemistry and histopathology in DIO mice; assay type: in vivo; details: 1 mg/kg/d ip, 28 days
Procedure: Serum levels of cholesterol, triglycerides, high-density lipoprotein (HDL), low-density lipoprotein (LDL), and alanine aminotransferase (ALT) were determined by using the Cobas C-111 chemistry analyzer (Roche, Switzerland). Serum insulin and leptin levels were measured by ELISAs (Merck, Cat #EZRMI-13K and #E6082-K, respectively). Fasting blood glucose was measured using a glucometer. Liver tissues were extracted as known, and their triglyceride content was determined using the Cobas C-111 chemistry analyzer (Roche, Switzerland).
Five μm paraffin-embedded liver sections from 7 animals per group were stained with H&E staining. Liver images were captured with a Zeiss AxioCam ICc5 color camera mounted on a Zeiss Axio Scope.A1 light microscope and taken from 10 random 40× fields of each animal. Lipid staining was conducted using an Oil Red O staining kit (Cat #ab150678; Abcam) according to the manufacturer's protocol. Briefly, at a […] optimal cutting temperature (O.C.T) (Cat #4583; SciGen, Inc., Gardena, CA, USA), compound-embedded liver sections were placed in propylene glycerol, followed by an Oil Red O solution and hematoxylin staining. Stained sections were photographed as mentioned above and positive red areas were quantified in a blinded manner using Image J software with a minimum of 10 random liver sections per mouse.

Structure (SMILES): Cc1c(C(=O)NN2CCCCC2)nn(-c2ccc(Cl)cc2Cl)c1-c1ccc(Cl)cc1 [free rimonabant, N-(piperidin-1-yl)-5-(4-chlorophenyl)-1-(2,4-dichlorophenyl)-4-methyl-1H-pyrazole-3-carboxamide hydrochloride]
- depressive-like symptoms in the Forced Swim Test [1]: did not induce depressive-like symptoms
- levels of rimonabant in the brain [2]: Comparable low levels
- body weight (overweightness) [3]: significantly reduced
- fat mass (adiposity) [3]: significantly reduced
- food intake [3]: without affecting
- lean mass [3]: increased
- HOMA-IR [4]: reduced
- hyperinsulinemia [4]: reduced
- insulin sensitivity [4]: improved
- obesity-induced glucose intolerance [4]: reversed
- despair-like behavior in the Tail Suspension Test [5]: did not induce despair-like behavior
- serum protein binding [6]: > 98%
- expression levels of genes associated with fatty oxidation [7]: significantly upregulated
- animal's activity profile [8]: without affecting
- fat oxidation (FO) [8]: upregulation
- oxygen consumption (VO2) [8]: upregulation
- total energy expenditure (TEE) [8]: upregulation
- HFD-induced fatty liver (liver weight, hepatic triglyceride content, hepatocyte ballooning, fat accumulation, serum ALT levels) [9]: completely reversed
- serum leptin levels [9]: significantly reduced
